Results reported in patent publication US6376501B1, “Type 2 helper T cell-selective immune response suppressors” (Japan Energy Corporation, priority 2000, dated 2002).

Experiments:
BALB/c mice [1] = experiment: Mouse FITC-induced contact dermatitis model (auricule swelling), ointment; type: in vivo; conditions: 10 μl on left auricule 2 hr before induction, 24 hr after induction
Protocol: As a control, Imiquimode (R-837; 4-amino-1-isobutyl-1H-imidazo[4,5-c]quinoline) disclosed in EP 145,340 A was used for comparison. Further, a steroid-type drug Rinderon™ ointment (Shionogi & Co.; 0.12% betamethasone valerate ointment) was used for reference.
The test compound was dissolved in an ointment base (PEG400:PEG4000=7:3) heated to about 80° C. to give a concentration of 1 mg/ml or 10 mg/ml, and then cooled to solid at room temperature to thereby prepare 0.1 or 1% macrogol ointment. Imiquimode (R-837), the control, was also formulated into 0.1 and 1% macrogol ointments.
Seven week-old male BALB/c mice were sensitized by applying 0.2 ml of 0.5% FITC in acetone/dibutyl phthalate (1:1) to the abdomen sheared in advance. Seven days after the sensitization, inflammation was induced by applying 10 μl of 0.5% FITC in acetone/dibutyl phthalate (1:1) to each side of the left auricule (total 20 μl). Before the induction and 24 hr after the induction, the thickness of the auricule was measured with a micrometer. The difference between the two values was taken as the swelling degree. The macrogoal ointment containing the test compound and Rinderon™ ointment (0.12% betamethasonevalerate) were applied to each side of the left auricule in an amount of 5 μl (total 10 μl) 2 hr before the induction. Mice in the placebo group were treated with the macrogol ointment base (PEG400:PEG4000=7:3).
The inflammation inhibitory effect of the ointment of the invention was calculated as an inhibition ratio relative to the swelling degree in the placebo group which was taken as 100%. For example, the inhibition ratios in the groups treated with ointments containing 0.1% and 1% of the compound of Example 59, i.e. 2-butyl-9-(p-fluorobenzyl)-8-hydroxyadenine were 67% and 33%, respectively.

interleukin-5 (IL-5) = experiment: IL-5 production from OVA-sensitized mouse spleen cells induced by antigen stimulation (ELISA); type: cell-based; conditions: OVA-stimulated sensitized spleen cells, 3 days culture supernatant
Protocol: (§1) 1) Preparation of Sensitized Mouse Spleen Cells
(§2) Seven week-old male BALB/c mice were immunized with 4 mg of aluminium hydroxide gel (100 μl) adsorbing 10 μg of ovalbumin (OVA) by intraperitoneal administration. After 14 days, the mice received a booster injection of the same composition. Seven days after the booster administration, the spleen was removed and suspended in RPMI-1640 medium containing inactivated bovine fetal serum (10% v/v), 2-mercaptoethanol (50 μM), penicillin G (100 U/ml) and streptomycin (100 μg/ml) to prepare a cell suspension.
(§3) 2) Cytokine Production Induced by Antigen Stimulation
(§4) To the spleen cell suspension (5×10^6 cells/200 μl/well), 1/1000 volume of dimethyl sulfoxide solution dissolving OVA (0.5 mg/ml) and a test compound at a specific concentration was added. Then, the cells were cultured at 37° C. under 5% CO2. After 3 days, cytokines in the culture supernatant were determined by ELISA. Specifically, as a Th1 type cytokine, interferon-γ, (IFN-γ) was determined using Mouse IFN-γ ELISA Kit (Amersham). As Th2 type cytokines, interleukin-4 (IL-4) and interleukin-5 (IL-5) were determined with Mouse IL-4 ELISA Kit (Amersham) and Mouse IL-5 ELISA minikit (Endogen), respectively.

interleukin-4 (IL-4) = experiment: IL-4 production from OVA-sensitized mouse spleen cells induced by antigen stimulation (ELISA); type: cell-based; conditions: OVA-stimulated sensitized spleen cells, 3 days culture supernatant
Protocol: as §1, §2, §3, §4

interferon-γ (IFN-γ) = experiment: IFN-γ production from OVA-sensitized mouse spleen cells induced by antigen stimulation (ELISA); type: cell-based; conditions: OVA-stimulated sensitized spleen cells, 3 days culture supernatant
Protocol: as §1, §2, §3, §4

BALB/c mice [2] = experiment: Inhibitory effect on eosinophilic infiltration into the abdominal cavity of OVA-immunized mice; type: in vivo; conditions: for Ratio of Infiltrating Eosinophiles: cells collected two days after; for Inhibition: eosinophile ratio vs control
Protocol: Eight week-old male BALB/c mice were immunized with 1.6 mg of aluminium hydroxide gel (200 μl) adsorbing 100 μg of OVA by subcutaneous administration in the back. After 7 days, the mice received a booster injection of the same composition. Seven days after the booster administration, 10 μg of OVA in 200 μl of physiological saline was administered to the mice intraperitoneally. Two days after the intraperitoneal administration, abdominal cavity-infiltrating cells were collected with physiological saline. The total cell count and the eosinophile count in the collected cells were calculated by staining with Türk's solution and Hinkerman's solution, respectively. The test compound was administered orally 2 hours before the OVA intraperitoneal administration.

[3] = 3 mg/kg orally 2 hours before OVA i.p.
[4] = 30 mg/kg orally 2 hours before OVA i.p.

melting point [°C]	Structure (SMILES)	IL-5 (interleukin-5 (IL-5); test compound 0.1 μM)	IL-5 (interleukin-5 (IL-5); test compound 1 μM)	IL-5 (interleukin-5 (IL-5); test compound 10 μM) [pg/mL]	IL-4 (interleukin-4 (IL-4); test compound 0.1 μM) [pg/mL]	IL-4 (interleukin-4 (IL-4); test compound 1 μM) [pg/mL]	IL-4 (interleukin-4 (IL-4); test compound 10 μM) [pg/mL]	IFN-γ (interferon-γ (IFN-γ); test compound 0.1 μM) [ng/mL]	IFN-γ (interferon-γ (IFN-γ); test compound 1 μM) [ng/mL]	IFN-γ (interferon-γ (IFN-γ); test compound 10 μM) [ng/mL]	also measured
	CC(C)Cn1cnc2c(N)nc3ccccc3c21 [Example R-837, 4-amino-1-isobutyl-1H-imidazo[4,5-c]quinoline, reference compound]										inhibition ratio relative to the swelling degree in the placebo group (BALB/c mice [1]; 0.1% macrogol ointment): 50%; inhibition ratio relative to the swelling degree in the placebo group (BALB/c mice [1]; 1% macrogol ointment): 67%
	Nc1nc(Cc2ccccc2)nc2c1nc(O)n2Cc1ccccc1 [Example 24, 2,9-Dibenzyl-8-Hydroxyadenine]	3,670 pg/ml	1,130 pg/ml	345	195	<7.8	<7.8	44	199	244	
222 to 224	CCCCn1c(O)nc2c(N)ncnc21 [Example 3, 9-Butyl-8-Hydroxyadenine]										
270 to 272	Nc1ncnc2c1nc(O)n2Cc1ccc(F)cc1 [Example 4, 9-(4-Fluorobenzyl)-8-Hydroxyadenine]										
248 to 250	CCCCCCCC(=O)Oc1nc2c(N)ncnc2n1Cc1ccccc1 [Example 15, 9-Benzyl-8-Octanoyloxyadenine]										
287 to 289	CC(C)(C)OC(=O)Oc1nc2c(N)ncnc2n1Cc1ccccc1 [Example 10, 9-Benzyl-8-tert-Butyloxycarbonyloxyadenine]										
278 to 280	Nc1ncnc2c1nc(O)n2Cc1ccccc1 [Example 1, 9-Benzyl-8-Hydroxyadenine]										
	C[C@@H]1C[C@H]2[C@@H]3CCC4=CC(=O)C=C[C@]4(C)[C@@]3(F)[C@@H](O)C[C@]2(C)[C@@]1(O)C(=O)CO [Dexamethasone, reference compound]										Ratio of Infiltrating Eosinophiles (BALB/c mice [2]; [3]): 10.27%; Inhibition (BALB/c mice [2]; [3]): 18.9%
	Cc1nc(N)c2nc(O)n(Cc3ccccc3)c2n1 [Example 17, 9-Benzyl-8-Hydroxy-2-Methyladenine]										Ratio of Infiltrating Eosinophiles (BALB/c mice [2]; [4]): 4.70%; Inhibition (BALB/c mice [2]; [4]): 62.9%
	CCCCc1nc(N)c2nc(O)n(Cc3ccc(F)cc3)c2n1 [Example 59, 2-Butyl-9-(p-Fluorobenzyl)-8-Hydroxyadenine]										inhibition ratio relative to the swelling degree in the placebo group (BALB/c mice [1]; 0.1% macrogol ointment): 67%; inhibition ratio relative to the swelling degree in the placebo group (BALB/c mice [1]; 1% macrogol ointment): 33%
227 to 229	Nc1ncnc2c1nc(OC(=O)c1ccccc1)n2Cc1ccccc1 [Example 12, 9-Benzyl-8-Benzoyloxyadenine]										
	Cc1nc(N)c2nc(S)n(Cc3ccccc3)c2n1 [Example 19, 9-Benzyl-8-Mercapto-2-Methyladenine]	4,482 pg/ml	1,782 pg/ml	643	296	29	<7.8	16	50	139	
	Cc1nc(N)c2nc(O)n(Cc3cccc(Cl)c3)c2n1 [Example 18, 9-(m-Chlorobenzyl)-8-Hydroxy-2-Methyladenine]	4,150 pg/ml	2,321 pg/ml	710	254	<7.8	<7.8	26	63	181	
	Nc1nc(C2CCCCC2)nc2c1nc(O)n2Cc1ccccc1 [Example 21, 9-Benzyl-2-Cyclohexyl-8-Hydroxyadenine]	4,103 pg/ml	1,291 pg/ml	715	192	11	<7.8	28	158	170	
	CC(C)c1nc(N)c2nc(O)n(Cc3ccccc3)c2n1 [Example 45, 9-Benzyl-8-Hydroxy-2-Isopropyladenine]	2,881 pg/ml	699 pg/mL	563	86	<7.8	<7.8	46	161	187	
	CCCCCc1nc(N)c2nc(O)n(Cc3ccccc3)c2n1 [Example 20, 9-Benzyl-8-Hydroxy-2-Pentyladenine]	1,667 pg/ml	670 pg/mL	524	20	<7.8	<7.8	135	193	219	IL-5 (interleukin-5 (IL-5); test compound 0.01 μM): 3,792 pg/ml; Ratio of Infiltrating Eosinophiles (BALB/c mice [2]; [4]): 6.94%; Inhibition (BALB/c mice [2]; [4]): 46.2%; IL-4 (interleukin-4 (IL-4); test compound 0.01 μM): 208 pg/mL; IFN-γ (interferon-γ (IFN-γ); test compound 0.01 μM): 25 ng/mL

Structure (SMILES)	melting point [°C]	IL-5 (interleukin-5 (IL-5); test compound 0.1 μM)	IL-5 (interleukin-5 (IL-5); test compound 1 μM)	IL-5 (interleukin-5 (IL-5); test compound 10 μM) [pg/mL]	IL-4 (interleukin-4 (IL-4); test compound 0.1 μM) [pg/mL]	IL-4 (interleukin-4 (IL-4); test compound 1 μM) [pg/mL]	IL-4 (interleukin-4 (IL-4); test compound 10 μM) [pg/mL]	IFN-γ (interferon-γ (IFN-γ); test compound 0.1 μM) [ng/mL]	IFN-γ (interferon-γ (IFN-γ); test compound 1 μM) [ng/mL]	IFN-γ (interferon-γ (IFN-γ); test compound 10 μM) [ng/mL]	also measured
CC(=O)Oc1nc2c(N)ncnc2n1Cc1ccccc1 [Example 11, 9-Benzyl-8-Acetoxyadenine]	189 to 191										
